Test results: patent US8889861B2, “Crystalline forms of a purine derivative” (Cyclacel Limited, priority 2010, dated 2014)
Converted amounts (≈) assume the structure as drawn. “And” between values parts separate entries of the source, which are not always exact repeats. Equal entries are not always repeated. “Also recorded” adds a separate entry of the source. Where two headings read alike, the source gives them in different places.

What was measured:
[1] = Gravimetric vapour sorption (GVS) / hygroscopicity; format: physicochemical; details: for reversible uptake of water from 0 to 90% RH: GVS; for mass increase (GVS): 25° C., 40-90% RH
Description: Gravimetric Vapour Sorption (GVS)
Sorption isotherms were obtained using a SMS DVS Intrinsic moisture sorption analyser, controlled by SMS Analysis Suite software. […] The humidity was controlled by mixing streams of dry and wet nitrogen, with a total flow rate of 200 ml. min^−1. The relative humidity was measured by a calibrated Rotronic probe (dynamic range of 1.0-100% RH), located near the sample. The weight change, (mass relaxation) of the sample as a function of % RH was constantly monitored by the microbalance (accuracy ±0.005 mg). Typically 5-20 mg of sample was placed in a tared mesh stainless steel basket under ambient conditions. The sample was loaded and unloaded at 40% RH and 25° C. (typical room conditions). A moisture sorption isotherm was performed as outlined below (2 scans giving 1 complete cycle). The standard isotherm was performed at 25° C. at 10% RH intervals over a 0.5-90% RH range.
Method Parameters for SMS DVS Intrinsic Experiments:
The sample was recovered after completion of the isotherm and re-analysed by XRPD.
Hiden Isochema Moisture Sorption Analyser (IGAsorp)
Sorption isotherms were obtained using a Hiden Isochema Moisture Sorption Analyser (IGAsorp) controlled by IGAsorp Systems Software V6.50.48. […] The humidity was controlled by mixing streams of dry and wet nitrogen, with a total flow rate of 250 ml. min^−1. The instrument was verified for relative humidity content by measuring three calibrated Rotronic salt solutions (10-50-88%). The weight change of the sample as a function of % RH was monitored by microbalance (accuracy ±0.005 mg). A defined amount of sample was placed in a tared mesh stainless steel basket under ambient conditions. A full experimental cycle consisted of two scans (sorption and desorption) at a constant temperature (25° C.) and 10% RH intervals over a 10-90% RH range (90 minutes for each humidity level).
11.254 mg of sample was placed in a tarred mesh stainless steel basket under ambient conditions. A full experimental cycle consisted of two scans (sorption and desorption) at a constant temperature (25° C.) and 10% RH intervals over a 40-90% range (180 minutes for each humidity level). The mass increase of approximately 0.09 mg (−0.8%) and the facile uptake and loss relative to humidity level indicates a non-hygroscopic sample that dampens with surface moisture only.

[2] = Storage in a humidity chamber at 25° C. (75%, 94% or 97% RH); format: physicochemical; details: for observation on storage: 25° C./97% RH, time not stated
Description: However, a large proportion of the peaks corresponding to compound (I) appear as broadened multiplets, probably due to the presence of the sulfonic acid group, making successful assignment non-trivial. A significant quantity of residual TBME was also visible, though this is believed to be unbound solvent rather than a solvate. XRPD analysis confirmed the material to be crystalline. […] Deliquescence of a sample of the product was observed after storage in a humidity chamber at 25° C. and 94% RH for 2 hours. […]

Storage at 40° C./75% RH = format: physicochemical; details: for 40° C./75% RH, appearance / 40° C./75% RH, XRPD: 7 d; for 40° C./75% RH, observation or form change: storage time not stated
Description: A new XRPD pattern corresponding to the HBr salt was obtained upon storage of HBr Pattern 1 (Form J) at 40° C./75% relative humidity.
The sample was dried in a vacuum oven at 40° C./3 mbar for 18 h to yield the L-malate (Form R) as a white solid. NMR analysis of the sample of Form R formed during the storage of Form Q at 40° C./75% RH confirmed it to be a mono-malate salt.

[3] = 24 h
Description: Thermodynamic Aqueous Solubility
The suspension was equilibrated at 25° C. for 24 hours then the pH was measured. The suspension was then filtered through a glass fibre C filter into a 96 well plate. The filtrate was then diluted by a factor of 101. Quantitation was by HPLC with reference to a standard solution of approximately 0.1 mg. ml^−1 in DMSO. Different volumes of the standard, diluted and undiluted sample solutions were injected.
The suspension was equilibrated at 25° C. for 24 hours. The suspension was then filtered through a filter into an HPLC vial. The filtrate was then diluted by an appropriate factor. Quantification was executed by HPLC with reference to a standard solution of 0.5 mg in 1 mL acetonitrile/water (1:1). Different volumes of the standard, diluted and undiluted sample solutions were injected.
The pH of the solution post solubility was pH 5.

[4] = Polymorph interconversion of L-tartrate Forms D and E (slurry conversion); details: slurry: 1:1 Form D:Form E, 45° C., 48 hours, ethyl acetate, IPA, IMS or acetonitrile
Description: Form E of the L-Tartrate salt of compound (I) was also prepared by slurry conversion from four different solvents (ethyl acetate, IPA, IMS or acetonitrile). A 1:1 mixture of Form by weight of D: Form E L-Tartrate salt (200 mg total) was heated at 45° C. over 48 hours in 2 ml of solvent prior to filtration and analysis.

**Q.** Which results are given for `CC[C@H](Nc1nc(NCc2cnc(C)cc2C)c2ncn(C(C)C)c2n1)[C@@H](C)O` [Form L]?
**A.** hygroscopicity ([1]; listed as Mesylate Pattern 1): hygroscopic; observation on storage [2]: deliquescence; 40° C./75% RH, observation (Storage at 40° C./75% RH; 15 h): 15 h - Deliquesced; 40° C./75% RH, observation (Storage at 40° C./75% RH; 15 h, listed as Mesylate Pattern 1): deliquescence; 40° C./75% RH, appearance (Storage at 40° C./75% RH): 7 d - No change; 40° C./75% RH, observation or form change (Storage at 40° C./75% RH; listed as mesylate salt): deliquescence; AQ Solubility [3]: 137 mg/mL; Aqueous solubility [3]: ~140 mg/mL

**Q.** Which “hygroscopicity” value [1] does the source give for `CC[C@H](Nc1nc(NCc2cnc(C)cc2C)c2ncn(C(C)C)c2n1)[C@@H](C)O` [Form C] here?
**A.** low hygroscopicity; also recorded: not hygroscopic

**Q.** What about the “uptake of water between 60 and 90% RH” value ([1]; GVS at 25° C.) of the same compound?
**A.** 0.5 % by weight

**Q.** And the “weight loss between 10 and 0% RH” value ([1]; GVS at 25° C.)?
**A.** 0.5%

**Q.** With `CC[C@H](Nc1nc(NCc2cnc(C)cc2C)c2ncn(C(C)C)c2n1)[C@@H](C)O` [Form Q] as the compound, how does the “hygroscopicity” value ([1]; listed as L-malate Pattern 1) read?
**A.** hygroscopic

**Q.** What about the “40° C./75% RH, observation” value (Storage at 40° C./75% RH; 15 h) of the same compound?
**A.** 15 h - Deliquescence

**Q.** What about the “40° C./75% RH, observation” value (Storage at 40° C./75% RH; 15 h, listed as L-malate Pattern 1) of the same compound?
**A.** deliquescence

**Q.** What about the “40° C./75% RH, observation” value (Storage at 40° C./75% RH; 72 h) of the same compound?
**A.** crystallisation had occurred

**Q.** And the “40° C./75% RH, observation” value (Storage at 40° C./75% RH; 72 h, listed as L-malate Pattern 1)?
**A.** crystallisation of a new solid form

**Q.** What about the “40° C./75% RH, appearance” value (Storage at 40° C./75% RH) of the same compound?
**A.** White solid

**Q.** What about the “40° C./75% RH, observation” value (Storage at 40° C./75% RH; inside 2 h) of the same compound?
**A.** deliquescence

**Q.** What about the “AQ Solubility” value [3] of the same compound?
**A.** 92 mg/mL

**Q.** For `CC[C@H](Nc1nc(NCc2cnc(C)cc2C)c2ncn(C(C)C)c2n1)[C@@H](C)O` [Form G], which “hygroscopicity” value [1] is on record?
**A.** highly hygroscopic above 75% RH

**Q.** What about the XRPD after storage ([2]; 25° C. and 75% RH for 70 hours) of the same compound?
**A.** consistent with that of the original product, but with a slightly larger amorphous halo

**Q.** And the appearance after storage ([2]; 25° C. and 75% RH for 70 hours)?
**A.** slightly tacky

**Q.** And the appearance after storage ([2]; 25° C. and 94% RH for 2 hours)?
**A.** Deliquescence

**Q.** For `CC[C@H](Nc1nc(NCc2cnc(C)cc2C)c2ncn(C(C)C)c2n1)[C@@H](C)O` [Form E], which “hygroscopicity” value [1] is on record?
**A.** only slightly hygroscopic

**Q.** And the Aqueous solubility [3]?
**A.** 43.9 mg/mL

**Q.** What about the aqueous solubility [3] of the same compound?
**A.** 43.905 mg/mL (≈ 110 mM)

**Q.** Which results are given for `CC[C@H](Nc1nc(NCc2cnc(C)cc2C)c2ncn(C(C)C)c2n1)[C@@H](C)O` [Form I]?
**A.** 40° C./75% RH, XRPD (Storage at 40° C./75% RH): conversion to HCl; 40° C./75% RH, appearance (Storage at 40° C./75% RH): Sticky solid; 40° C./75% RH, observation or form change (Storage at 40° C./75% RH): unstable; also recorded: conversion to HCl Pattern 1 (Form H); AQ Solubility [3]: > 79 mg/mL

**Q.** With `CC[C@H](Nc1nc(NCc2cnc(C)cc2C)c2ncn(C(C)C)c2n1)[C@@H](C)O` [Form D] as the compound, how does the “hydrate formation at high RH (GVS)” value [1] read?
**A.** no hydrate is formed

**Q.** What about the “hygroscopicity” value [1] of the same compound?
**A.** hygroscopic only above 70% RH

**Q.** What about the XRPD after storage ([2]; 25° C. and 75% RH for 4 days) of the same compound?
**A.** consistent with that of the original product

**Q.** What about the appearance after storage ([2]; 25° C. and 75% RH for 4 days) of the same compound?
**A.** unchanged

**Q.** What about the XRPD after storage ([2]; 25° C. and 94% RH for 70 hours) of the same compound?
**A.** some peaks corresponding to those in the pattern acquired for the original product, though a significant amorphous halo was also visible

**Q.** And the appearance after storage ([2]; 25° C. and 94% RH for 70 hours)?
**A.** slightly tacky, though it had not deliquesced

**Q.** What about the “relative stability of the L-tartrate polymorphs” value [4] of the same compound?
**A.** metastable

**Q.** Which results are given for `CC[C@H](Nc1nc(NCc2cnc(C)cc2C)c2ncn(C(C)C)c2n1)[C@@H](C)O` [Form J]?
**A.** 40° C./75% RH, observation (Storage at 40° C./75% RH; 15 h): deliquescence and 15 h - Deliquescence; 40° C./75% RH, XRPD (Storage at 40° C./75% RH): conversion to a new; 40° C./75% RH, appearance (Storage at 40° C./75% RH): crystallisation was observed; also recorded: Sticky solid; 40° C./75% RH, observation or form change (Storage at 40° C./75% RH): conversion to a new Pattern—HBr Pattern 2 (Form K); AQ Solubility [3]: > 30 mg/mL

**Q.** For `CC[C@H](Nc1nc(NCc2cnc(C)cc2C)c2ncn(C(C)C)c2n1)[C@@H](C)O` [Form P], which “hygroscopicity” value [1] is on record?
**A.** Non-hygroscopic, reversible uptake of

**Q.** And the “reversible uptake of water from 0 to 90% RH” value [1]?
**A.** <0.4 wt % from 0 to 90% RH

**Q.** What about the “reversible uptake of water from 0 to 90% RH” value ([1]; listed as Fumarate Pattern 1) of the same compound?
**A.** less than 0.4 wt %

**Q.** And the “hygroscopicity” value ([1]; listed as Fumarate Pattern 1)?
**A.** non-hygroscopic

**Q.** What about the “40° C./75% RH, appearance” value (Storage at 40° C./75% RH) of the same compound?
**A.** No visual change

**Q.** And the “AQ Solubility” value [3]?
**A.** 54 mg/mL

**Q.** And the Aqueous solubility [3]?
**A.** approximately 50 mg. ml^−1

**Q.** Which “40° C./75% RH, observation” value (Storage at 40° C./75% RH; 30 min) does the source give for `CC[C@H](Nc1nc(NCc2cnc(C)cc2C)c2ncn(C(C)C)c2n1)[C@@H](C)O` [Form H] here?
**A.** 30 min - Deliquescence

**Q.** What about the “AQ Solubility” value [3] of the same compound?
**A.** 75 mg/mL

**Q.** What does the source list for `CC[C@H](Nc1nc(NCc2cnc(C)cc2C)c2ncn(C(C)C)c2n1)[C@@H](C)O` [Form R]?
**A.** hygroscopicity [1]: less hygroscopic than the benzensulfonate and citrate salts; reversible uptake of water from 0 to 90% RH [1]: Reversible uptake of ~2.5 wt % H2O from 0 to 90% RH

**Q.** For `CC[C@H](Nc1nc(NCc2cnc(C)cc2C)c2ncn(C(C)C)c2n1)[C@@H](C)O` [Form F], which “hydrate formation at high RH (GVS)” value [1] is on record?
**A.** no hydrate is formed

**Q.** What about the “hygroscopicity” value [1] of the same compound?
**A.** hygroscopic above only 70% RH

**Q.** And the XRPD after storage ([2]; 25° C. and 75% RH for 70 hours)?
**A.** consistent with that of the original product

**Q.** And the appearance after storage ([2]; 25° C. and 75% RH for 70 hours)?
**A.** unchanged

**Q.** What about the XRPD after storage ([2]; 25° C. and 94% RH for 3 days) of the same compound?
**A.** same pattern as obtained for the initial product, but with a significant amorphous halo

**Q.** What about the appearance after storage ([2]; 25° C. and 94% RH for 3 days) of the same compound?
**A.** slightly tacky, though it had not deliquesced

**Q.** For `CC[C@H](Nc1nc(NCc2cnc(C)cc2C)c2ncn(C(C)C)c2n1)[C@@H](C)O` [Form M], which “hygroscopicity” value ([1]; listed as Maleate Pattern 1) is on record?
**A.** hygroscopic above 75% RH

**Q.** And the “hygroscopicity” value ([1]; listed as maleate salt)?
**A.** hygroscopic above 40° C./70% RH

**Q.** And the observation on storage [2]?
**A.** deliquescence

**Q.** What about the “40° C./75% RH, XRPD” value (Storage at 40° C./75% RH) of the same compound?
**A.** consistent with Maleate

**Q.** What about the “40° C./75% RH, appearance” value (Storage at 40° C./75% RH) of the same compound?
**A.** Sticky solid

**Q.** What about the “40° C./75% RH, observation or form change” value (Storage at 40° C./75% RH; listed as Maleate Pattern 1) of the same compound?
**A.** sticky solid

**Q.** And the “AQ Solubility” value [3]?
**A.** 73 mg/mL

**Q.** For `CC[C@H](Nc1nc(NCc2cnc(C)cc2C)c2ncn(C(C)C)c2n1)[C@@H](C)O` [Form A], which “hygroscopicity” value [1] is on record?
**A.** non-hygroscopic

**Q.** And the “mass increase (GVS)” value [1]?
**A.** −0.8%

**Q.** What about the “mass increase (GVS)” value ([1]; 11.254 mg sample) of the same compound?
**A.** approximately 0.09 mg

**Q.** What about the “XRPD of sample post GVS” value ([1]; GVS at 25° C.) of the same compound?
**A.** no change
